Data taken from patent US20100179122A1 (priority 2005, published 2010).
pIC50: −log10 of the molar value. Read-outs that look alike come from different tables or passages of the source.

Legend:
[1] = tested on: acute HIV infection of T-lymphoid cells; assay: Assay for inhibition of HIV replication (spread assay); type: cell-based; settings: Human immunodeficiency virus 1; inhibition of acute HIV infection of T-lymphoid cells; read-out: IC95, spread assay
Protocol: An assay for the inhibition of acute HIV infection of T-lymphoid cells (alternatively referred to herein as the “spread assay”) was conducted in accordance with Vacca, J. P. et al., Proc. Natl. Acad. Sci. USA 1994, 91: 4096. […] The compounds set forth in the other Examples were not tested in the spread assay.

[2] = molecular target: T1, mutant HIV reverse transcriptase (K103N mutation) (Human immunodeficiency virus type 1 group M subtype B, UniProt P04585, K690N); assay: Analogous RT inhibition assay, K103N mutant; type: biochemical
T1 construct: mutations that occur in the reverse transcriptase segment of the pol gene; made in house
Protocol: (§1) 100 μL reaction mixtures were initiated with a combination of primer-template substrate (10 nM final concentration) and dNTPs (0.6 μM dNTPs, 0.75 μM [^3H]-dGTP). The heterodimeric nucleic acid substrate was generated by annealing the DNA primer pD500 (described in Shaw-Reid et al., J. Biol. Chem., 278: 2777-2780; obtained from Integrated DNA Technologies) to t500, a 500 nucleotide RNA template created by in vitro transcription (see Shaw-Reid et al., J. Biol. Chem., 278: 2777-2780). After 1 hour incubation at 37° C., reactions were quenched by 10 μl, streptavidin scintillation proximity assay beads (10 mg/mL, from Amersham Biosciences) in 0.5 M EDTA, pH 8. Microtiter plates were incubated an additional 10 minutes at 37° C. prior to quantification via Topcount (Packard).
(§2) Analogous assays were conducted substituting mutant HIV strains to determine the […] inhibition of compounds of the present invention against mutant HIV reverse transcriptase. In one strain the reverse transcriptase has the Y181C mutation and in the other strain the reverse transcriptase has the K103N mutation. The mutations were generated with the […] site-directed mutagenesis kit (Stratagene). […] The compounds set forth in the other Examples were not tested in the Y181C assay. […] The compounds set forth in the other Examples were not tested in the K103N assay.

[3] = molecular target: T2, mutant HIV reverse transcriptase (Y181C mutation) (Human immunodeficiency virus type 1 group M subtype B, UniProt P04585, Y768C); assay: Analogous RT inhibition assay, Y181C mutant; type: biochemical
T2 construct: mutations that occur in the reverse transcriptase segment of the pol gene; made in house
Protocol: as §1, §2

[4] = reverse transcriptase with K103N mutation, tested up to 20 micromolar, read-out: IC50, K103N mutant assay
[5] = reverse transcriptase with Y181C mutation, tested up to 20 micromolar, read-out: IC50, Y181C mutant assay

**Q.** O=C(Nc1ccccc1F)Nc1[nH]c2ccc(Cl)cc2c1S(=O)(=O)c1ccccc1 [Example 2, N-[5-chloro-3-(phenylsulfonyl)-1H-indol-2-yl]-N-(2-fluorophenyl)urea] was tested. Which IC95 [1] did it give?
**A.** < 1000 nM

**Q.** What about the pIC50 [2] of the same compound?
**A.** > 6.00

**Q.** How did the IC95 [1] turn out when O=C(Nc1[nH]c2ccc(Cl)cc2c1S(=O)(=O)c1ccccc1)C1CC1 [Example 3, N-[5-Chloro-3-(phenylsulfonyl)-1H-indol-2-yl]cyclopropanecarboxamide] was run?
**A.** < 1000 nM

**Q.** What about the pIC50 [2] of the same compound?
**A.** > 6.00

**Q.** What about the pIC50 [3] of the same compound?
**A.** 4.70 to 6.00

**Q.** Which IC95 [1] does the source give for CC(=O)OCC(=O)Nc1[nH]c2ccc(Cl)cc2c1S(=O)(=O)c1ccccc1 [Example 5, 2-{[5-chloro-3-(phenylsulfonyl)-1H-indol-2-yl]amino}-2-oxoethyl acetate] here?
**A.** < 1000 nM

**Q.** What about the pIC50 [2] of the same compound?
**A.** > 6.00

**Q.** And the pIC50 [3]?
**A.** > 6.00

**Q.** Which IC95 [1] does the source give for O=C(CCOc1ccccc1)Nc1[nH]c2ccc(Cl)cc2c1S(=O)(=O)c1ccccc1 [Example 8, N-[5-chloro-3-(phenylsulfonyl)-1H-indol-2-yl]-3-phenoxypropanamide] here?
**A.** < 1000 nM

**Q.** And the pIC50 [2]?
**A.** < 4.70

**Q.** And the pIC50 [3]?
**A.** < 4.70

**Q.** O=C(Nc1[nH]c2ccc(Cl)cc2c1S(=O)(=O)c1ccccc1)C1Cc2ccccc2O1 (stereo not drawn) [Example 10, N-[5-chloro-3-(phenylsulfonyl)-1H-indol-2-yl]-2,3-dihydro-1-benzofuran-2-carboxamide] was tested. Which IC95 [1] did it give?
**A.** < 1000 nM

**Q.** And the pIC50 [2]?
**A.** > 6.00

**Q.** What about the pIC50 [3] of the same compound?
**A.** > 6.00

**Q.** For O=C(Nc1[nH]c2ccc(Cl)cc2c1S(=O)(=O)c1ccccc1)C1COc2ccccc2O1 (stereo not drawn) [Example 11, N-[5-chloro-3-(phenylsulfonyl)-1H-indol-2-yl]-2,3-dihydro-1,4-benzodioxine-2-carboxamide], which IC95 [1] is on record?
**A.** < 1000 nM

**Q.** What about the pIC50 [2] of the same compound?
**A.** > 6.00

**Q.** What about the pIC50 [3] of the same compound?
**A.** > 6.00

**Q.** Which results are given for CC(C)C(=O)Nc1[nH]c2ccc(Cl)cc2c1S(=O)(=O)c1ccccc1 [Example 15, N-[5-chloro-3-(phenylsulfonyl)-1H-indol-2-yl]-2-methylpropanamide]?
**A.** IC95 [1]: < 1000 nM; pIC50 [2]: 4.70 to 6.00; pIC50 [3]: 4.70 to 6.00

**Q.** For CCNCC(=O)Nc1[nH]c2ccc(Cl)cc2c1S(=O)(=O)c1ccccc1 [Example 21, N^1-[5-chloro-3-(phenylsulfonyl)-1H-indol-2-yl]-N^2-ethylglycinamide], which IC95 [1] is on record?
**A.** < 1000 nM

**Q.** What about the pIC50 [2] of the same compound?
**A.** > 6.00

**Q.** What about the pIC50 [3] of the same compound?
**A.** > 6.00

**Q.** Which results are given for CCC(C)C(=O)Nc1[nH]c2ccc(Cl)cc2c1S(=O)(=O)c1ccccc1 (stereo not drawn) [Example 26, N-[5-chloro-3-(phenylsulfonyl)-1H-indol-2-yl]-2-methylbutanamide]?
**A.** IC95 [1]: < 1000 nM; pIC50 [2]: 4.70 to 6.00; pIC50 [3]: > 6.00

**Q.** What does the source list for O=C(Nc1ccc(F)cc1)Nc1[nH]c2ccc(Cl)cc2c1S(=O)(=O)c1ccccc1 [Example 31, N-[5-chloro-3-(phenylsulfonyl)-1H-indol-2-yl]-N′-(4-fluorophenyl)urea]?
**A.** IC95 [1]: < 1000 nM; pIC50 [2]: < 4.70; pIC50 [3]: < 4.70

**Q.** With O=C(CN1CCC(c2ccncc2)CC1)Nc1[nH]c2ccc(Cl)cc2c1S(=O)(=O)c1ccccc1 [Example 37, N-[5-chloro-3-(phenylsulfonyl)-1H-indol-2-yl]-2-(4-pyridin-4-ylpiperidin-1-yl)acetamide] as the compound, how does the pIC50 [2] read?
**A.** < 4.70

**Q.** What about the pIC50 [3] of the same compound?
**A.** < 4.70

**Q.** O=C(CNCc1cscn1)Nc1[nH]c2ccc(Cl)cc2c1S(=O)(=O)c1ccccc1 [Example 38, N^1-[5-chloro-3-(phenylsulfonyl)-1H-indol-2-yl]-N^2-(1,3-thiazol-4-ylmethyl)glycinamide] was tested. Which pIC50 [2] did it give?
**A.** > 6.00

**Q.** And the pIC50 [3]?
**A.** > 6.00

**Q.** Which IC95 [1] does the source give for CO[C@@](C(=O)Nc1[nH]c2ccc(Cl)cc2c1S(=O)(=O)c1ccccc1)(c1ccccc1)C(F)(F)F [Example 39, (2R)-N-[5-chloro-3-(phenylsulfonyl)-1H-indol-2-yl]-3,3,3-trifluoro-2-methoxy-2-phenylpropanamide] here?
**A.** < 1000 nM

**Q.** What about the pIC50 [2] of the same compound?
**A.** > 6.00

**Q.** And the pIC50 [3]?
**A.** > 6.00

**Q.** How did the pIC50 [2, 4] turn out when O=C(NCc1cccc(F)c1)Nc1[nH]c2ccc(Br)cc2c1S(=O)(=O)N1CCCC1 [Example 70] was run?
**A.** > 6.00

**Q.** What does the source list for O=C(NCc1cccc(Cl)c1)Nc1[nH]c2ccc(Br)cc2c1S(=O)(=O)N1CCCC1 [Example 71, N-[5-bromo-3-(pyrrolidin-1-ylsulfonyl)-1H-indol-2-yl]-N′-(3-chlorobenzyl)urea]?
**A.** IC95 [1]: < 1000 nM; pIC50 [2, 4]: > 6.00; pIC50 [3]: 4.70 to 6.00

**Q.** How did the IC95 [1] turn out when O=C(NCc1ccccc1)Nc1[nH]c2ccc(Br)cc2c1S(=O)(=O)N1CCCC1 [Example 72, N-benzyl-N′-[5-bromo-3-(pyrrolidin-1-ylsulfonyl)-1H-indol-2-yl]urea] was run?
**A.** < 1000 nM

**Q.** And the pIC50 [2, 4]?
**A.** > 6.00

**Q.** What about the pIC50 [3] of the same compound?
**A.** > 6.00

**Q.** Which IC95 [1] does the source give for O=C(Nc1ccccc1)Nc1[nH]c2ccc(Br)cc2c1S(=O)(=O)N1CCCC1 [Example 73, N-[5-bromo-3-(pyrrolidin-1-ylsulfonyl)-1H-indo1-2-yl]-N′-phenylurea] here?
**A.** < 1000 nM

**Q.** And the pIC50 [2, 4]?
**A.** > 6.00

**Q.** With CC(C)NC(=O)Nc1[nH]c2ccc(Br)cc2c1S(=O)(=O)N1CCCC1 [Example 74, N-[5-bromo-3-(pyrrolidin-1-ylsulfonyl)-1H-indol-2-yl]-N′-isopropylurea] as the compound, how does the pIC50 [2, 4] read?
**A.** > 6.00

**Q.** Which results are given for O=C(Nc1[nH]c2ccc(Br)cc2c1S(=O)(=O)N1CCCC1)NC1CCCC1 [Example 78, N-[5-bromo-3-(pyrrolidin-1-ylsulfonyl)-1H-indol-2-yl]-N′-cyclopentylurea]?
**A.** pIC50 [2, 4]: > 6.00; pIC50 [3]: < 4.70

**Q.** O=C(NCc1ccccc1O)Nc1[nH]c2ccc(Br)cc2c1S(=O)(=O)N1CCCC1 [Example 79, N-[5-bromo-3-(pyrrolidin-1-ylsulfonyl)-1H-indol-2-yl]-N′-(2-hydroxybenzyl)urea] was tested. Which pIC50 [2, 4] did it give?
**A.** > 6.00

**Q.** What about the pIC50 [3] of the same compound?
**A.** < 4.70

**Q.** How did the pIC50 [2, 4] turn out when O=C(NCc1ccccn1)Nc1[nH]c2ccc(Br)cc2c1S(=O)(=O)N1CCCC1 [Example 80, N-[5-bromo-3-(pyrrolidin-1-ylsulfonyl)-1H-indol-2-yl]-N′-(pyridin-2-ylmethyl)urea] was run?
**A.** > 6.00

**Q.** What about the pIC50 [3] of the same compound?
**A.** 4.70 to 6.00

**Q.** O=C(NCc1cccnc1)Nc1[nH]c2ccc(Br)cc2c1S(=O)(=O)N1CCCC1 [Example 81, N-[5-bromo-3-(pyrrolidin-1-ylsulfonyl)-1H-indol-2-yl]-N′-(pyridin-3-ylmethyl)urea] was tested. Which pIC50 [2, 4] did it give?
**A.** > 6.00

**Q.** What about the pIC50 [3] of the same compound?
**A.** 4.70 to 6.00

**Q.** How did the pIC50 [2, 4] turn out when O=C(NCc1cncs1)Nc1[nH]c2ccc(Br)cc2c1S(=O)(=O)N1CCCC1 [Example 83, N-[5-bromo-3-(pyrrolidin-1-ylsulfonyl)-1H-indol-2-yl]-N′-(1,3-thiazol-5-ylmethyl)urea] was run?
**A.** > 6.00

**Q.** What about the pIC50 [3] of the same compound?
**A.** 4.70 to 6.00

**Q.** What does the source list for O=C(Nc1[nH]c2ccc(Br)cc2c1S(=O)(=O)N1CCCC1)N1CCCC1 [Example 84, N-[5-bromo-3-(pyrrolidin-1-ylsulfonyl)-1H-indol-2-yl]pyrrolidine-1-carboxamide]?
**A.** pIC50 [2, 4]: > 6.00; pIC50 [3, 5]: < 4.70

**Q.** With O=C(NCCc1ccccc1)Nc1[nH]c2ccc(Br)cc2c1S(=O)(=O)N1CCCC1 [Example 85, N-[5-bromo-3-(pyrrolidin-1-ylsulfonyl)-1H-indol-2-yl]-N′-(2-phenylethyl)urea] as the compound, how does the pIC50 [2, 4] read?
**A.** > 6.00

**Q.** What about the pIC50 [3, 5] of the same compound?
**A.** < 4.70

**Q.** Which results are given for NC(=O)C1CCCN(C(=O)Nc2[nH]c3ccc(Br)cc3c2S(=O)(=O)N2CCCC2)C1 (stereo not drawn) [Example 87, N^1-[5-bromo-3-(pyrrolidin-1-ylsulfonyl)-1H-indol-2-yl]piperidine-1,3-dicarboxamide]?
**A.** pIC50 [2, 4]: > 6.00; pIC50 [3, 5]: < 4.70

**Q.** O=C(NCCc1ccccn1)Nc1[nH]c2ccc(Br)cc2c1S(=O)(=O)N1CCCC1 [Example 88, N-[5-bromo-3-(pyrrolidin-1-ylsulfonyl)-1H-indol-2-yl]-N′-(2-pyridin-2-ylethyl)urea] was tested. Which pIC50 [2] did it give?
**A.** 4.70 to 6.00

**Q.** What about the pIC50 [3, 5] of the same compound?
**A.** < 4.70

**Q.** CN1CCN(C(=O)Nc2[nH]c3ccc(Br)cc3c2S(=O)(=O)N2CCCC2)CC1 [Example 91, N-[5-bromo-3-(pyrrolidin-1-ylsulfonyl)-1H-indol-2-yl]-4-methylpiperazine-1-carboxamide] was tested. Which pIC50 [2] did it give?
**A.** 4.70 to 6.00

**Q.** What about the pIC50 [3, 5] of the same compound?
**A.** < 4.70

**Q.** How did the pIC50 [2] turn out when CC(C)(C)CCNC(=O)Nc1[nH]c2ccc(Br)cc2c1S(=O)(=O)N1CCCC1 [Example 92, N-[5-bromo-3-(pyrrolidin-1-ylsulfonyl)-1H-indol-2-yl]-N′-(3,3-dimethylbutyl)urea] was run?
**A.** < 4.70

**Q.** What about the pIC50 [3, 5] of the same compound?
**A.** < 4.70

**Q.** Which results are given for O=C(NCCNc1ccccc1)Nc1[nH]c2ccc(Br)cc2c1S(=O)(=O)N1CCCC1 [Example 93, N-(2-anilinoethyl)-N′-[5-bromo-3-(pyrrolidin-1-ylsulfonyl)-1H-indol-2-yl]urea]?
**A.** pIC50 [2]: 4.70 to 6.00; pIC50 [3, 5]: < 4.70

**Q.** Which results are given for CN(C)CCCNC(=O)Nc1[nH]c2ccc(Br)cc2c1S(=O)(=O)N1CCCC1 [Example 94, N-[5-bromo-3-(pyrrolidin-1-ylsulfonyl)-1H-indol-2-yl]-N′-[3-(dimethylamino)propyl]urea]?
**A.** pIC50 [2]: > 6.00; pIC50 [3]: 4.70 to 6.00
